Values after ≈ are worked out from the molar mass of the structure shown. Values joined by “and” are separate entries in the source; they are usually repeats but may differ in a detail not shown here. Equal entries are not always repeated. Where two headings read alike, the source gives them in different places. Marks after values point to notes of the source that are not given here.
Tests used:
rat = conditions: cited from earlier work
[1] = Re-activation of storage stabile beta-keto calcium salt by dissolution, release of ketone (odour); format: physicochemical
Method: 25 mg of the precipitated and dried calcium salt prepared in Example 2, was, after being subjected to the storage stability test of Example 4, dissolved in 5.66 g of tap water and boiled for two minutes.

[2] = Storage stability of benzoylacetate salts and their corresponding acid (HPLC or gravimetric); format: physicochemical; conditions: solid
Method: A 0.2 M solution of ethyl benzoyl acetate (90%, Sigma Aldrich) in 0.5 M NaOH (aq) was prepared at room temperature and stirred for typically 5-24 hours, still at room temperature. After this time a major part of the ethyl benzoyl acetate had been transformed into dissolved sodium benzoyl acetate, as evidenced by monitoring the reaction by analysis of samples by reversed phase HPLC. Some acetophenone and remaining ethyl benzoyl acetate were typically present in the samples, but in minor amounts. The method employed a C8 column with an inner diameter of 150×4.6 mm and 5 micron particles. The mobile phase consisted of 400 ml deionized water+600 ml acetonitrile+0.196 g H3PO4 (85%)+2.760 g NaH2PO4*H2O. The flow rate was set to 1.0 mL/min and UV detection at 254 nm was employed for analysis of the compounds ethylbenzoylacetate (precursor), benzoylacetate (model prodrug) and acetophenone (model drug).
The storage stability of the sodium and calcium salts of benzoylacetate, and of benzoylacetic acid, in solid form, and in aqueous solutions, was investigated by storage of samples under various conditions (see Table 3a above) with regular HPLC- or gravimetric measurements of the samples from time to time. Samples denoted “neutralized” were prepared from a solution prepared as described in Example 1, which was neutralized with diluted HCl after performing the steps in Example 1.
From the data it can be concluded that the best storage stability at room temperature is obtained by storage in the form of the calcium salt.

[3] = Aqueous solubility of benzoylacetate salts (Example 13a); conditions: water
[4] = In-vitro hydrolysis of Nabumetone beta-keto ester pro-prodrug and release of Nabumetone in model blood electrolyte solution at 37° C.; format: physicochemical; conditions: for Nabumetone formed in the solution: under-estimated, precipitating Nabumetone compromised sampling
[5] = Storage stability of beta-keto calcium salt prodrug of Nabumetone (17 days at 60° C., HPLC); format: physicochemical
[6] = water at 25° C.; Sepassi et al, 2007; cited from earlier work
[7] = Sustained release of Nabumetone from beta-keto sodium salt prodrug in phosphate buffer at blood pH and 37° C.; format: physicochemical; conditions: released from beta-keto salt prodrug, phosphate buffer pH about 7.4, 37° C.
Method: 20.91 mg of the product synthesised as described in Example 8 (however in this case not purified by the chromatographic step in Example 8) was mixed with 1 ml 0.5 M NaOH at room temperature, whereby a portion of the sample was dissolved. After 30 minutes the mixture was placed in an oven at 37° C., and 10 μl samples was taken at regular intervals, diluted with 1 ml mobile phase (as in Example 1), and analyzed by HPLC, using UV-detection at 240 nm. 3.0 hours after initiation of the saponification reaction, the precursor (retention time 4.6 min) could no longer be detected, and the precursor peak was replaced by a peak from the intermediary beta-keto salt prodrug (retention time 2.3 minutes). At this point in time, a solution of 9 ml H2O and 0.0762 g NaH2PO4 was added to the sample, in order to create a NaH2PO4/Na2HPO4 pH buffer by neutralization of the NaOH remaining in the sample. […] The sample was again placed in the oven at 37° C. and the decarboxylation of the beta-keto salt in solution, gradually giving the commercially available drug Nabumetone, was followed by HPLC by taking 100 μl samples at regular intervals and diluting them with 1 ml mobile phase (see Example 1 above) before injection on the HPLC. It can be seen from the data that Nabumetone was continuously released into the solution via the spontaneous, non-enzymatic decarboxylation of the dissolved prodrug sodium salt, over a period of more than 120 hours. The half-life of the prodrug was estimated to be about 70 hours in this medium and under the conditions used.

[8] = Aqueous solubility of sodium beta-keto salt prodrug of Nabumetone (Example 13b); format: physicochemical
Method: 12.1 mg of the of ethyl-5-(6-methoxy-2-naphthyl)-beta-keto-pentanoate product prepared and purified as in Example 8 was mixed with 25 mL of a 0.5 M aqueous solution NaOH and homogenised on a vortex mixer. […] 15 minutes after preparation of the sample, the sample was transferred to an oil bath set at 37° C. with continuous gentle magnetic stirring, and kept there for 3.5 hours. Crystalline flakes remained in the sample at the end of the 3.5 hours heat-treatment, and the sample was thereafter centrifuged and the clear liquid above the sedimented crystals was analysed by HPLC as described above.
After storage around one hour at room temperature a fraction of the sample was then filtered twice through a 0.2 μm filter (Whatman, 0.2 μm PS) fitted to a syringe to give a clear solution. 200 μL of this filtered solution was transferred, in a tightly closed vessel, to an oil bath at 95° C. and kept at this temperature for about 5 hours to bring about quantitative decarboxylation of the labile, dissolved beta-keto carboxylic salt prodrug derivative of Nabumetone.
The heated sample was then mixed with 35 mL of mobile phase (see Example 1) whereby a few solid crystals (comprising Nabumetone) was seen to not dissolve. In order to assure a correct sampling for HPLC analysis, 5 mL of the 35 mL sample was filtered through a 0.2 μm filter, after the whole 35 mL sample had been pH adjusted to 4.21 by 300 μL 0.1 M HCl+100 μL 1 M HCl, to assure that the pH of the sample was close to the pH of the mobile phase itself (pH 4.30). The filtered solution was thereafter analysed by HPLC and found to contain 0.777 mg Nabumetone per liter. If recalculated to the corresponding concentration of nabumetone equivalents in the form of the beta-keto salt prodrug present in dissolved form in the filtered 200 μl sample that was subsequently heat-treated to form Nabumetone above, the obtained concentration corresponds to a Nabumetone concentration of 136.7 mg Nabumetone per liter in the clear aqueous solution, at room temperature, before the heat-treatment at 95° C.

CCN [ethyl amine]
LD50 (rat): 280 mg/kg

O=C([O-])CC(=O)c1ccccc1.O=C([O-])CC(=O)c1ccccc1.[Ca+2] [calcium benzoylacetate, Ca(benzoylacetate)2]
release of acetophenone (odour) ([1]; 25 mg dissolved in 5.66 g tap water and boiled for two minutes, after storage stability test): strong odour of acetophenone
release of acetophenone (odour) ([1]; similar amount kept in dry form in an identical beaker): did not give rise to any acetophenone odour
Absolute amount of calcium benzoylacetate in sample (wt %, from HPLC) ([2]; 1 days at room T and typical indoor humidity, 0 days at 50% RH and room T, 0 days at 60° C. in oven): 35.9 wt %
Absolute amount of calcium benzoylacetate in sample (wt %, from HPLC) ([2]; 1.9 days at room T and typical indoor humidity, 0 days at 50% RH and room T, 0 days at 60° C. in oven): 34.2 wt %
Absolute amount of calcium benzoylacetate in sample (wt %, from HPLC) ([2]; 8 days at room T and typical indoor humidity, 0 days at 50% RH and room T, 0 days at 60° C. in oven): 43.0 wt %
Absolute amount of calcium benzoylacetate in sample (wt %, from HPLC) ([2]; 9 days at room T and typical indoor humidity, 0 days at 50% RH and room T, 103 days at 60° C. in oven): 45.6 wt %
Absolute amount of calcium benzoylacetate in sample (wt %, from HPLC) ([2]; 9 days at room T and typical indoor humidity, 103 days at 50% RH and room T, 0 days at 60° C. in oven): 32.1 wt %
Absolute amount of calcium benzoylacetate in sample (wt %, from HPLC) ([2]; 28 days at room T and typical indoor humidity, 0 days at 50% RH and room T, 0 days at 60° C. in oven): 33.1 wt %
Absolute amount of calcium benzoylacetate in sample (wt %, from HPLC) ([2]; 112 days at room T and typical indoor humidity, 0 days at 50% RH and room T, 0 days at 60° C. in oven): 40.4 wt %
Solubility ([3]; as Ca(benzoylacetate)2, corrected for 40 wt % content): 69 mM
Solubility (mM, as acetophenone equivalents) ([3]; benzoylacetate in the solution, corrected for 40 wt % content): 138 mM
solubility limit ([3]; dry calcium salt sample containing only 40 wt % calcium benzoyl acetate): ~63 mg/mL

CN [methyl amine]
LD50 (rat): 100 mg/kg

COc1ccc2cc(CCC(C)=O)ccc2c1 [Nabumetone, 4-(6-methoxy-2-naphthyl)-2-butanone]
storage time after which sedimenting crystalline flakes of Nabumetone were detected in the sample ([4]; model blood solutes solution): 100 to 150 h
Nabumetone staying in a stabile dispersion (theoretical concentration) ([4]; model blood solutes solution with surface active beta-keto anion prodrug): 40 mg/L
Nabumetone formed in the solution ([4]; model blood solutes solution, Time 96.8 hours): (2656)* mg/L
Nabumetone formed in the solution ([4]; model blood solutes solution, Time 121.25 hours): (2715)* mg/L
Nabumetone formed in the solution ([4]; model blood solutes solution, Time 145.0 hours): (2423)* mg/L
Nabumetone formed in the solution ([4]; model blood solutes solution, Time 172.6 hours): (3508)* mg/L
Nabumetone formed in the solution ([4]; model blood solutes solution, Time 197.3 hours): (3240)* mg/L
Nabumetone formed in the solution ([4]; model blood solutes solution, Time 218.4 hours): (3859)* mg/L
Nabumetone formed in the solution ([4]; model blood solutes solution, Time 293.7 hours): (3013)* mg/L
Relative amount of calcium salt beta-keto prodrug/Nabumetone remaining after 17 days at 60° C. ([5]; 408 h): 45.3%
Obtained value (area units) ([5]; dry calcium salt after 17 days at 60° C., redissolved in water, HPLC): 1315 area units
Expected value if no breakdown occured during storage and a 100% yield was obtained upon precipitation with calcium chloride ([5]; recalculated for dilution): 90 area units
Solubility [6]: 0.0047 mg/mL (≈ 20.6 µM)
Nabumetone (HPLC area @ 3.8 min) ([7]; 3.25 h after initiation of saponification): 0
Nabumetone (HPLC area @ 3.8 min) ([7]; 5.1 h after initiation of saponification): 0
Nabumetone (HPLC area @ 3.8 min) ([7]; 21.45 h after initiation of saponification): 5265
Nabumetone (HPLC area @ 3.8 min) ([7]; 24.25 h after initiation of saponification): 5388 and 5496
Nabumetone (HPLC area @ 3.8 min) ([7]; 28.15 h after initiation of saponification): 5804
Nabumetone (HPLC area @ 3.8 min) ([7]; 45.4 h after initiation of saponification): 10083
Nabumetone (HPLC area @ 3.8 min) ([7]; 50 h after initiation of saponification): 11400
Nabumetone (HPLC area @ 3.8 min) ([7]; 78 h after initiation of saponification): 13359
Nabumetone (HPLC area @ 3.8 min) ([7]; 117 h after initiation of saponification): 18156
Nabumetone (HPLC area @ 3.8 min) ([7]; 194 h after initiation of saponification): 22484
Nabumetone found in filtered solution by HPLC ([8]; 200 μL filtered prodrug solution decarboxylated at 95° C. for about 5 hours, mixed with 35 mL mobile phase): 0.777 mg Nabumetone per liter
Area at retention time 3.8 minutes characteristic for detection of Nabumetone ([8]; clear liquid after 3.5 h at 37° C. in 0.5 M NaOH, 200 μL diluted with 5.0 ml mobile phase): 59 arbitrary units

— patent publication US20120065179A1, “PRODRUG COMPRISING BETA-KETO CARBOXYLIC ACID, BETA-KETO CARBOXYLIC ACID SALT OR BETA-KETO CARBOXYLIC ACID ESTER FOR DRUG DELIVERY” (YKI, Ytemiska Institutet AB, priority 2009, published 2012)
